Legend:
Type in all cases: physicochemical
[1] = Surface tension measurement of surfactant-containing etchant; conditions: BOE 7-1 (about 35% NH4F, about 6.3% HF); 25° C.; prior to filtration; incremental additions until ST stabilized or saturation
Method: In the examples, a surfactant was added to a mixture of predetermined amounts of hydrofluoric acid, ammonium fluoride and deionized water to prepare an etchant composition. The prepared composition was kept standing at room temperature and test samples were periodically withdrawn to measure the change of surface tension of the composition.
(§1) A preliminary testing was conducted prior to filtration to evaluate whether individual components of the claimed surfactant(s), would work individually, need modification, or require combining to give a basic understanding which would lead to synthesis of the surfactant(s) of the invention. Potential surfactant candidates were prepared and evaluated in an aqueous mixture comprised of about 35% by weight of ammonium fluoride, NH4F, and about 6.3% by weight of hydrofluoric acid, HF, (defined as BOE 7-1).
In this run, surfactant “H” was tested with an aqueous solution of mixed etchants consisting of about 85% by weight of sulfuric acid, about 5% by weight of nitric acid, and about 1.5% by weight hydrofluoric acid. 100 ppm (Sample 1) and 200 ppm (Sample 2) by weight of surfactant “H” were mixed into two separate samples of FS Etch. The surface tension of both unfiltered samples was measured 1 hour upon batch completion and after 15 days of storage.
Additional measurements of surface tension at 25° C. were carried out on unfiltered aqueous etchants of (1) 40% by weight ammonium fluoride, and (2) 9.2% by weight of hydrofluoric acid containing 100 ppm by weight of surfactant “H” (Table I).

[2] = Solubility of surfactant in BOE (saturation point); conditions: BOE 7-1; prior to filtration
Method: Potential surfactant candidates were prepared and evaluated in an aqueous mixture comprised of about 35% by weight of ammonium fluoride, NH4F, and about 6.3% by weight of hydrofluoric acid, HF, (defined as BOE 7-1).

[3] = Preliminary testing of potential surfactants: comments and overall assessment; conditions: BOE 7-1; prior to filtration
Method: as §1

| SMILES | Surface Tension [1] | Solubility In BOE [2] | Comments [3] | Promising (Yes/No) [3] |
| --- | --- | --- | --- | --- |
| O=C(O)C(F)(F)C(F)(F)C(F)(F)C(F)(F)C(F)(F)C(F)(F)C(F)(F)C(F)(F)F [Surfactant F, Perfluorononanoic Acid] | 25 dynes/cm | ≦100 ppm | Precipitated | No |
| NC1CCCCCC1 [Surfactant A, Cycloheptylamine] | 72 dynes/cm | ≦400 ppm | ST too high | No |
| O=C(O)C(F)(F)C(F)(F)C(F)(F)C(F)(F)C(F)(F)C(F)(F)F [Surfactant E, Perfluoroheptanoic Acid] | 20 dynes/cm | ≦100 ppm | Precipitated | No |
| O=C(O)C(F)(F)C(F)(F)C(F)(F)C(F)(F)F [Surfactant G, Perfluoropentanoic Acid] | 24 dynes/cm | ≦100 ppm | Precipitated | No |
| NC1CCCCCCC1 [Surfactant B, Cyclooctylamine] | 65 dynes/cm | ≦600 ppm | ST too high | No |
| NC1CCCC1 [Surfactant C, Cyclopentylamine] | 65 dynes/cm | ≦400 ppm | ST too high | No |
| O=C(O)C(F)(F)C(F)(F)C(F)(F)C(F)(F)C(F)(F)C(F)(F)C(F)(F)F [Surfactant D, Perfluorooctanoic Acid] | 20 dynes/cm | ≦100 ppm | Precipitated | No |

From US20060097218A1, “Etchants containing filterable surfactant” (General Chemical Performance Products LLC, priority 2004, published 2006)
